PubChem BioAssay AID1259407 (Chemical Carcinogenesis Research Information System (CCRIS), 2018)
Activity calls are given as the source filed them. The rule behind the calls is not given here.

Tested on: CCRIS mutagenicity, Ames/micronucleus/aberration tests
Assay: CCRIS mutagenicity studies
[1] = Test System: AMES SALMONELLA TYPHIMURIUM, Strain/Indicator: TA98(1,8-DNP6), Metabolic Activation: NONE, Method: STANDARD PLATE
[2] = Test System: AMES SALMONELLA TYPHIMURIUM, Strain/Indicator: TA98(NR), Metabolic Activation: NONE, Method: STANDARD PLATE
[3] = Test System: AMES SALMONELLA TYPHIMURIUM, Strain/Indicator: TA98, Metabolic Activation: NONE, Method: STANDARD PLATE
[4] = Test System: AMES SALMONELLA TYPHIMURIUM, Strain/Indicator: TA100, Metabolic Activation: NONE, Method: STANDARD PLATE
[5] = Test System: AMES SALMONELLA TYPHIMURIUM, Strain/Indicator: TA100, Metabolic Activation: RAT, LIVER, S-9, AROCLOR 1254, Method: STANDARD PLATE
[6] = Test System: AMES SALMONELLA TYPHIMURIUM, Strain/Indicator: TA1537, Metabolic Activation: RAT, LIVER, S-9, AROCLOR 1254, Method: STANDARD PLATE
[7] = Test System: AMES SALMONELLA TYPHIMURIUM, Strain/Indicator: TA1538, Metabolic Activation: NONE, Method: STANDARD PLATE
[8] = Test System: AMES SALMONELLA TYPHIMURIUM, Strain/Indicator: TA1538, Metabolic Activation: RAT, LIVER, S-9, AROCLOR 1254, Method: STANDARD PLATE

With `Cc1ccc(S(=O)(=O)O)cc1C` the mutagenic call (Test System: AMES SALMONELLA TYPHIMURIUM, Strain/Indicator: TA98, Metabolic Activation: HAMSTER LIVER S-9, AROCLOR 1254 (10%), Method: PREINCUBATION) was “inactive; negative”, the mutagenic call (Test System: AMES SALMONELLA TYPHIMURIUM, Strain/Indicator: TA98, Metabolic Activation: HAMSTER, LIVER, S-9, AROCLOR 1254 (10%), Method: PREINCUBATION) was “inactive; negative” and the mutagenic call (Test System: AMES SALMONELLA TYPHIMURIUM, Strain/Indicator: TA98, Metabolic Activation: NONE, Method: PREINCUBATION) was “inactive; negative”. For the same molecule, the mutagenic call (Test System: AMES SALMONELLA TYPHIMURIUM, Strain/Indicator: TA98, Metabolic Activation: RAT LIVER S-9, AROCLOR 1254 (10%), Method: PREINCUBATION) was “inactive; negative”, the mutagenic call (Test System: AMES SALMONELLA TYPHIMURIUM, Strain/Indicator: TA98, Metabolic Activation: RAT, LIVER, S-9, AROCLOR 1254 (10%), Method: PREINCUBATION) was “inactive; negative” and the mutagenic call (Test System: AMES SALMONELLA TYPHIMURIUM, Strain/Indicator: TA100, Metabolic Activation: HAMSTER LIVER S-9, AROCLOR 1254 (10%), Method: PREINCUBATION) was “inactive; negative”. The mutagenic call (Test System: AMES SALMONELLA TYPHIMURIUM, Strain/Indicator: TA100, Metabolic Activation: HAMSTER, LIVER, S-9, AROCLOR 1254 (10%), Method: PREINCUBATION) was “inactive; negative”, the mutagenic call (Test System: AMES SALMONELLA TYPHIMURIUM, Strain/Indicator: TA100, Metabolic Activation: NONE, Method: PREINCUBATION) was “inactive; negative” and the mutagenic call (Test System: AMES SALMONELLA TYPHIMURIUM, Strain/Indicator: TA100, Metabolic Activation: RAT LIVER S-9, AROCLOR 1254 (10%), Method: PREINCUBATION) was “inactive; negative”. For the same molecule, the mutagenic call (Test System: AMES SALMONELLA TYPHIMURIUM, Strain/Indicator: TA100, Metabolic Activation: RAT, LIVER, S-9, AROCLOR 1254 (10%), Method: PREINCUBATION) was “inactive; negative”, the mutagenic call (Test System: AMES SALMONELLA TYPHIMURIUM, Strain/Indicator: TA1535, Metabolic Activation: HAMSTER LIVER S-9, AROCLOR 1254 (10%), Method: PREINCUBATION) was “inactive; negative” and the mutagenic call (Test System: AMES SALMONELLA TYPHIMURIUM, Strain/Indicator: TA1535, Metabolic Activation: HAMSTER, LIVER, S-9, AROCLOR 1254 (10%), Method: PREINCUBATION) was “inactive; negative”. For the same molecule, the mutagenic call (Test System: AMES SALMONELLA TYPHIMURIUM, Strain/Indicator: TA1535, Metabolic Activation: NONE, Method: PREINCUBATION) was “inactive; negative”, the mutagenic call (Test System: AMES SALMONELLA TYPHIMURIUM, Strain/Indicator: TA1535, Metabolic Activation: RAT LIVER S-9, AROCLOR 1254 (10%), Method: PREINCUBATION) was “inactive; negative” and the mutagenic call (Test System: AMES SALMONELLA TYPHIMURIUM, Strain/Indicator: TA1535, Metabolic Activation: RAT, LIVER, S-9, AROCLOR 1254 (10%), Method: PREINCUBATION) was “inactive; negative”. For the same molecule, the mutagenic call (Test System: AMES SALMONELLA TYPHIMURIUM, Strain/Indicator: TA1537, Metabolic Activation: HAMSTER LIVER S-9, AROCLOR 1254 (10%), Method: PREINCUBATION) was “inactive; negative”, the mutagenic call (Test System: AMES SALMONELLA TYPHIMURIUM, Strain/Indicator: TA1537, Metabolic Activation: HAMSTER, LIVER, S-9, AROCLOR 1254 (10%), Method: PREINCUBATION) was “inactive; negative” and the mutagenic call (Test System: AMES SALMONELLA TYPHIMURIUM, Strain/Indicator: TA1537, Metabolic Activation: NONE, Method: PREINCUBATION) was “inactive; negative”. For the same molecule, the mutagenic call (Test System: AMES SALMONELLA TYPHIMURIUM, Strain/Indicator: TA1537, Metabolic Activation: RAT LIVER S-9, AROCLOR 1254 (10%), Method: PREINCUBATION) was “inactive; negative”, the mutagenic call (Test System: AMES SALMONELLA TYPHIMURIUM, Strain/Indicator: TA1537, Metabolic Activation: RAT, LIVER, S-9, AROCLOR 1254 (10%), Method: PREINCUBATION) was “inactive; negative” and the mutagenic call (Test System: MOUSE LYMPHOMA, Strain/Indicator: L5178Y (TK+/TK-), Metabolic Activation: NONE, Method: SUSPENSION/PLATE) was “inactive; negative”.
`Oc1ccc2c3ccccc3c3cc4ccccc4cc3c2c1` was tested, and the mutagenic call (Test System: AMES SALMONELLA TYPHIMURIUM, Strain/Indicator: TA100, Metabolic Activation: RAT, LIVER, S-9, AROCLOR 1254, Method: PREINCUBATION) was “active; positive”.
`O[C@@H]1c2cccc3ccc4cc5ccccc5c(c4c23)[C@H]1O` was tested, and the mutagenic call (Test System: CHINESE HAMSTER V-79, Strain/Indicator: V-79/8-AZAGUANINE, Metabolic Activation: NONE, Method: STANDARD PLATE) was “active; positive”.
`Nc1ccc2ccc3cccc4ccc1c2c34` was tested, and the mutagenic call (End Point: IN VITRO CHROMOSOMAL ABERRATIONS, Test System: CHINESE HAMSTER LUNG (CHL) CELLS, Metabolic Activation: NONE) was “inactive; negative”, the mutagenic call [1] was “active; positive” and the mutagenic call (Test System: AMES SALMONELLA TYPHIMURIUM, Strain/Indicator: TA98(1,8-DNP6), Metabolic Activation: RAT, LIVER, S-9, AROCLOR 1254, Method: STANDARD PLATE) was “active; positive”. For the same molecule, the mutagenic call [2] was “active; positive”, the mutagenic call (Test System: AMES SALMONELLA TYPHIMURIUM, Strain/Indicator: TA98(NR), Metabolic Activation: RAT, LIVER, S-9, AROCLOR 1254, Method: STANDARD PLATE) was “active; positive” and the mutagenic call [3] was “active; positive”. For the same molecule, the mutagenic call (Test System: AMES SALMONELLA TYPHIMURIUM, Strain/Indicator: TA98, Metabolic Activation: RAT, LIVER, S-9, AROCLOR 1254 (2 OR 4%), Method: STANDARD PLATE) was “active; positive”, the mutagenic call [4] was “inactive; negative” and the mutagenic call (Test System: AMES SALMONELLA TYPHIMURIUM, Strain/Indicator: TA100, Metabolic Activation: RAT, LIVER, S-9, AROCLOR 1254 (4%), Method: STANDARD PLATE) was “inactive; negative”. The mutagenic call [5] was “active; positive”, the mutagenic call (Test System: AMES SALMONELLA TYPHIMURIUM, Strain/Indicator: TA1535, Metabolic Activation: RAT, LIVER, S-9, AROCLOR 1254 (4%), Method: STANDARD PLATE) was “inactive; negative” and the mutagenic call (Test System: AMES SALMONELLA TYPHIMURIUM, Strain/Indicator: TA1537, Metabolic Activation: RAT, LIVER, S-9, AROCLOR 1254 (4%), Method: STANDARD PLATE) was “inactive; negative”. For the same molecule, the mutagenic call [6] was “active; positive”, the mutagenic call [7] was “inactive; negative” and the mutagenic call [8] was “active; positive”.
For `CCN(CC)c1ccc2c(C(F)(F)F)cc(=O)oc2c1`, the mutagenic call [7] was “inactive; negative” and the mutagenic call [8] was “inactive; negative”.
For `COc1c(Cl)cc2c(c1OC)N(C)[C@@H]1N3C(=O)[C@@]4(C)SS[C@@]3(C(=O)N4C)[C@H](O)[C@]21O`, the mutagenic call [3] was “inactive; negative”, the mutagenic call (Test System: AMES SALMONELLA TYPHIMURIUM, Strain/Indicator: TA98, Metabolic Activation: RAT, LIVER, S-9, AROCLOR 1254, Method: STANDARD PLATE) was “inactive; negative” and the mutagenic call [4] was “inactive; negative”. For the same molecule, the mutagenic call [5] was “inactive; negative”, the mutagenic call (Test System: AMES SALMONELLA TYPHIMURIUM, Strain/Indicator: TA102, Metabolic Activation: NONE, Method: STANDARD PLATE) was “inactive; negative” and the mutagenic call (Test System: AMES SALMONELLA TYPHIMURIUM, Strain/Indicator: TA102, Metabolic Activation: RAT, LIVER, S-9, AROCLOR 1254, Method: STANDARD PLATE) was “inactive; negative”. For the same molecule, the mutagenic call (Test System: AMES SALMONELLA TYPHIMURIUM, Strain/Indicator: TA1537, Metabolic Activation: NONE, Method: STANDARD PLATE) was “inactive; negative” and the mutagenic call [6] was “inactive; negative”.
For `O=[N+]([O-])c1cc2c3c(ccc4cccc(c43)CC2)c1`, the mutagenic call [1] was “active; positive”, the mutagenic call [2] was “active; positive” and the mutagenic call [3] was “active; positive”.
